Legend:
HSP90a protein = biological target: T1, HSP90a protein (Homo sapiens, UniProt P07900); experiment: HSP90α-binding fluorescent polarization (FP) assay, BODIPY-labeled RNK04010 probe; settings: FP competition with RNK04010 (BODIPY-labeled), 5 nM, 300 min at 25° C.
T1 construct: purchased BPS Bioscience 50298
Method in brief: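 Test compounds (2.5-fold serial dilution, 20 μM to 5.2 nM) competed with a fluorescent tracer for N-terminal HSP90a, with fluorescence polarization as the read-out. FITC-geldanamycin tracer was used at 5 nM final with 120 min incubation at 25° C; BODIPY-labeled RNK04010 was used at 5 nM final with 300 min incubation.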

[1] = tested on: NCI-H358 human non-small cell lung cancer; experiment: NCI-H358 CCK-8 proliferation assay; format: cell-based; settings: NCI-H358 cells, 72 hr
Method in brief: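 KRAS(G12C) lines were used: MIA PaCa-2 with 2 copies, and NCI-H358 and NCI-H23 with 1 copy each. Cells were treated with 3-fold compound dilutions from 20 μM to 1.02 nM, and proliferation was read by CCK-8 absorbance. % inhibition was calculated against DMSO-treated cells after subtracting the cell-free medium blank.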

SMILES	IC50 (HSP90a protein) [nM]	EC50 [1] [nM]
C=C(F)C(=O)N1CCN(c2nc(NCCC(=O)NCc3ccc(CN4CCC(Cc5ccc(-n6c(C(=O)NCC(F)(F)F)nnc6-c6cc(C(C)C)c(O)cc6O)cc5)CC4)cc3)nc3c2CCN(c2cc(O)cc4ccccc24)C3)CC1 [Compound 154, 5-(2,4-dihydroxy-5-isopropylphenyl)-4-(4-((1-(4-((3-((4-(4-(2-fluoroacryloyl)piperazin-1-yl)-7-(3-hydroxynaphthalen-1-yl)-5,6,7,8-tetrahydropyrido[3,4-d]pyrimidin-2-yl)amino)propanamido)methyl)benzyl)piperidin-4-yl)methyl)phenyl)-N-(2,2,2-trifluoroethyl)-4H-1,2,4-triazole-3-carboxamide]	100 to 1000	100 to 1000
C=CC(=O)N1CCN(c2nc(NCCC(=O)NCc3ccc(-n4c(O)nnc4-c4cc(C(C)C)c(O)cc4O)cc3F)nc3c2CCN(c2cccc4cccc(Cl)c24)C3)C[C@H]1CC#N [Compound 97, (R)-3-((4-(4-acryloyl-3-(cyanomethyl)piperazin-1-yl)-7-(8-chloronaphthalen-1-yl)-5,6,7,8-tetrahydropyrido[3,4-d]pyrimidin-2-yl)amino)-N-(4-(3-(2,4-dihydroxy-5-isopropylphenyl)-5-hydroxy-4H-1,2,4-triazol-4-yl)-2-fluorobenzyl)propanamide, trifluoroacetic acid]	100 to 1000	> 1000
C=CC(=O)N1CCN(c2nc(NCCC(=O)NCc3ccc(-n4c(O)nnc4-c4ccc(O)cc4O)cc3)nc3c2CCN(c2cccc4cccc(Cl)c24)C3)C[C@@H]1CC#N [Compound 111, (S)-3-((4-(4-acryloyl-3-(cyanomethyl)piperazin-1-yl)-7-(8-chloronaphthalen-1-yl)-5,6,7,8-tetrahydropyrido[3,4-d]pyrimidin-2-yl)amino)-N-(4-(3-(2,4-dihydroxyphenyl)-5-hydroxy-4H-1,2,4-triazol-4-yl)benzyl)propanamide, trifluoroacetic acid]	> 1000	> 1000
C=CC(=O)N1CCN(c2nc(NCCC(=O)NCc3ccc(-n4c(O)nnc4-c4cc(CC)c(O)cc4O)cc3F)nc3c2CCN(c2cc(O)cc4ccccc24)C3)CC1 [Compound 41, 3-((4-(4-acryloylpiperazin-1-yl)-7-(3-hydroxynaphthalen-1-yl)-5,6,7,8-tetrahydropyrido[3,4-d]pyrimidin-2-yl)amino)-N-(4-(3-(5-ethyl-2,4-dihydroxyphenyl)-5-hydroxy-4H-1,2,4-triazol-4-yl)-2-fluorobenzyl)propanamide, trifluoroacetic acid]	100 to 1000	> 1000
C=CC(=O)N1CCN(c2nc(NCCC(=O)NCc3ccc(-n4c(O)nnc4-c4cc(C(C)C)c(O)cc4O)cc3F)nc3c2CCN(c2cc(O)cc4ccccc24)C3)CC1 [Compound 47, 3-((4-(4-acryloylpiperazin-1-yl)-7-(3-hydroxynaphthalen-1-yl)-5,6,7,8-tetrahydropyrido[3,4-d]pyrimidin-2-yl)amino)-N-(4-(3-(2,4-dihydroxy-5-isopropylphenyl)-5-hydroxy-4H-1,2,4-triazol-4-yl)-2-fluorobenzyl)propenamide]	100 to 1000	> 1000
C=CC(=O)N1CCN(c2nc(NCCC(=O)N3CCN(Cc4ccc5c(c4F)CN(C(=O)c4cc(C)c(O)cc4O)C5)CC3)nc3c2CCN(c2cc(O)cc4ccccc24)C3)CC1 [Compound 107, 1-(4-(2-((3-(4-((2-(2,4-dihydroxy-5-methylbenzoyl)-4-fluoroisoindolin-5-yl)methyl)piperazin-1-yl)-3-oxopropyl)amino)-7-(3-hydroxynaphthalen-1-yl)-5,6,7,8-tetrahydropyrido[3,4-d]pyrimidin-4-yl)piperazin-1-yl)prop-2-en-1-one, trifluoroacetic acid]	> 1000	> 1000
C=CC(=O)N1CCN(c2nc(NCCC(=O)NCc3ccc(-n4c(O)nnc4-c4ccc(O)cc4O)cc3)nc3c2CCN(c2cc(O)cc4ccccc24)C3)CC1 [Compound 27, 3-((4-(4-acryloylpiperazin-1-yl)-7-(3-hydroxynaphthalen-1-yl)-5,6,7,8-tetrahydropyrido[3,4-d]pyrimidin-2-yl)amino)-N-(4-(3-(2,4-dihydroxyphenyl)-5-hydroxy-4H-1,2,4-triazol-4-yl)benzyl)propanamide, trifluoroacetic acid]	> 1000	> 1000

Second part, the compound after the results:

IC50 (HSP90a protein) [nM]	EC50 [1] [nM]	SMILES
100 to 1000	> 1000	CCC(=O)N1CCN(c2nc(NCCC(=O)NCc3ccc(-n4c(O)nnc4-c4cc(C(C)C)c(O)cc4O)cc3F)nc3c2CCN(c2cc(O)cc4ccccc24)C3)CC1 [Compound 33, N-(4-(3-(2,4-dihydroxy-5-isopropylphenyl)-5-hydroxy-4H-1,2,4-triazol-4-yl)-2-fluorobenzyl)-3-((7-(3-hydroxynaphthalen-1-yl)-4-(4-propionylpiperazin-1-yl)-5,6,7,8-tetrahydropyrido[3,4-d]pyrimidin-2-yl)amino)propanamide, trifluoroacetic acid]
100 to 1000	> 1000	C=CC(=O)N1CCN(C2CN(c3cc(O)cc4ccccc34)Cc3nc(NCCC(=O)NCCOCCOCCOc4ccc(-n5c(O)nnc5-c5cc(C(C)C)c(O)cc5O)cc4)ncc32)CC1 (stereo not drawn) [Compound 9, 3-((5-(4-acryloylpiperazin-1-yl)-7-(3-hydroxynaphthalen-1-yl)-5,6,7,8-tetrahydropyrido[3,4-d]pyrimidin-2-yl)amino)-N-(2-(2-(2-(4-(3-(2,4-dihydroxy-5-isopropylphenyl)-5-hydroxy-4H-1,2,4-triazol-4-yl)phenoxy)ethoxy)ethoxy)ethyl)propanamide, trifluoroacetic acid]
100 to 1000	> 1000	C=CC(=O)N1CCN(c2nc(NCCC(=O)N3CCC(Cc4ccc(-n5c(O)nnc5-c5cc(C(C)C)c(O)cc5O)cc4)CC3)nc3c2CCN(c2cc(O)cc4ccccc24)C3)CC1 [Compound 1, 1-(4-(2-((3-(4-(4-(3-(2,4-dihydroxy-5-isopropylphenyl)-5-hydroxy-4H-1,2,4-triazol-4-yl)benzyl)piperidin-1-yl)-3-oxopropyl)amino)-7-(3-hydroxynaphthalen-1-yl)-5,6,7,8-tetrahydropyrido[3,4-d]pyrimidin-4-yl)piperazin-1-yl)prop-2-en-1-one, trifluoroacetic acid]
100 to 1000	100 to 1000	C=CC(=O)N1CCN(c2nc(NCCC(=O)N3CCC(Cc4ccc(-n5c(O)nnc5-c5cc(C(C)C)c(O)cc5O)cc4)CC3)nc3c2CCN(c2cccc4ccccc24)C3)C[C@H]1CC#N [Compound 84, (R)-2-(1-acryloyl-4-(2-((3-(4-(4-(3-(2,4-dihydroxy-5-isopropylphenyl)-5-hydroxy-4H-1,2,4-triazol-4-yl)benzyl)piperidin-1-yl)-3-oxopropyl)amino)-7-(naphthalen-1-yl)-5,6,7,8-tetrahydropyrido[3,4-d]pyrimidin-4-yl)piperazin-2-yl)acetonitrile, trifluoroacetic acid]
100 to 1000	> 1000	CCC(=O)N1CCN(c2nc(NCCC(=O)NCCOCCOc3ccc(-n4c(O)nnc4-c4cc(C(C)C)c(O)cc4O)cc3)nc3c2CCN(c2cc(O)cc4ccccc24)C3)CC1 [Compound 73, N-(2-(2-(4-(3-(2,4-dihydroxy-5-isopropylphenyl)-5-hydroxy-4H-1,2,4-triazol-4-yl)phenoxy)ethoxy)ethyl)-3-((7-(3-hydroxynaphthalen-1-yl)-4-(4-propionylpiperazin-1-yl)-5,6,7,8-tetrahydropyrido[3,4-d]pyrimidin-2-yl)amino)propanamide, trifluoroacetic acid]
100 to 1000	> 1000	C=CC(=O)N1CCN(c2nc(NCCC(=O)N3CCN(Cc4ccc(-n5c(O)nnc5-c5cc(C(C)C)c(O)cc5O)cc4)CC3)nc3c2CCN(c2cccc4cccc(Cl)c24)C3)C[C@H]1CC#N [Compound 100, (R)-2-(1-acryloyl-4-(7-(8-chloronaphthalen-1-yl)-2-((3-(4-(4-(3-(2,4-dihydroxy-5-isopropylphenyl)-5-hydroxy-4H-1,2,4-triazol-4-yl)benzyl)piperazin-1-yl)-3-oxopropyl)amino)-5,6,7,8-tetrahydropyrido[3,4-d]pyrimidin-4-yl)piperazin-2-yl)acetonitrile, trifluoroacetic acid]
< 100	> 1000	C=CC(=O)N1CCN(c2nc(NCCC(=O)NCCOCCOCCOc3ccc(-n4c(O)nnc4-c4cc(C(C)C)c(O)cc4O)cc3)nc3c2CCN(c2cccc4ccccc24)C3)C[C@@H]1CC#N [Compound 92, (S)-3-((4-(4-acryloyl-3-(cyanomethyl)piperazin-1-yl)-7-(naphthalen-1-yl)-5,6,7,8-tetrahydropyrido[3,4-d]pyrimidin-2-yl)amino)-N-(2-(2-(2-(4-(3-(2,4-dihydroxy-5-isopropylphenyl)-5-hydroxy-4H-1,2,4-triazol-4-yl)phenoxy)ethoxy)ethoxy)ethyl)propanamide, trifluoroacetic acid]
< 100	> 1000	C=CC(=O)N1CCN(c2nc(NCCC(=O)NCC3CCN(C(=O)C4CCN(Cc5ccc(-n6c(O)nnc6-c6cc(C(C)C)c(O)cc6O)cc5)CC4)CC3)nc3c2CCN(c2cccc4ccccc24)C3)C[C@H]1CC#N [Compound 101, (R)-3-((4-(4-acryloyl-3-(cyanomethyl)piperazin-1-yl)-7-(naphthalen-1-yl)-5,6,7,8-tetrahydropyrido[3,4-d]pyrimidin-2-yl)amino)-N-((1-(1-(4-(3-(2,4-dihydroxy-5-isopropylphenyl)-5-hydroxy-4H-1,2,4-triazol-4-yl)benzyl)piperidine-4-carbonyl)piperidin-4-yl)methyl)propanamide, trifluoroacetic acid]
